Results on 20 molecules are retold here after paper PMC6112376, “Comprehensive Analyses and Prioritization of Tox21 10K Chemicals Affecting Mitochondrial Function by in-Depth Mechanistic Studies” (Environmental Health Perspectives, 2018).

Data set [1] has as its system HepG2 cells. Conditions: cited from earlier work; call rule not given here.
The test system of data set [2] is rat primary hepatocytes. The data set can be described thus: MMP assay in rat primary hepatocytes. Particulars: for IC50: Rattus norvegicus, Hepatocyte, read-out: MMP assays IC50 (µM) Rat Hepatocytes.
For data set [3], the system named is HepG2 cells. The data set can be described thus: cells. Conditions: Homo sapiens; for IC50: HepG2, read-out: MMP assays IC50 (µM) HepG2; for Emax: HepG2, read-out: MMP assays efficacy (%) HepG2.
Data set [4] deals with rat primary hepatocytes.
The mark [5] stands for this setting: read-out: MMP assays IC50 (µM), qHTS-HepG2.
Where [6] appears, read: read-out: MMP assays IC50 (µM) qHTS-HepG2.

Molecules are shown by their SMILES. Counter-ions that a name gives are not always drawn. Like-named read-outs stand apart in the source and are kept apart here.

With `C[C@@H]1O[C@@H](O[C@@H]2C=C3CC[C@@H]4[C@H](CC[C@]5(C)[C@@H](c6ccc(=O)oc6)CC[C@]45O)[C@@]3(C)CC2)[C@H](O)[C@H](O)[C@H]1O` [Proscillaridin], the “MMP assays efficacy (%) qHTS-HepG2” value in data set [1] is -72±4%. Moreover, the IC50 in data set [1] (setting [5]) is 0.09 ± 0.02 µM; in data set [3], 0.066 µM. In addition, in data set [2], the “MMP assays IC50 (µM) Rat Hepatocytes” value is “inactive”. Further, the Emax in data set [3] worked out at 86%. Further, the “MMP assays efficacy (%) Rat Hepatocytes” value in data set [4] is “inactive”.

Take `O=S1(=O)OCC2C(CO1)C1(Cl)C(Cl)=C(Cl)C2(Cl)C1(Cl)Cl` (stereo not drawn) [Endosulfan sulfate]: the “MMP assays efficacy (%) qHTS-HepG2” value in data set [1] is listed as -123±10%. Besides, the 50% inhibitory concentration (IC50) in data set [1] (setting [6]) was 16 ± 2.05 µM; in data set [2], 25.8 ± 10.1 µM; in data set [3], 17.8 µM. In data set [3], the Emax was 103%. Further, in data set [4], the “MMP assays efficacy (%) Rat Hepatocytes” value is recorded as -80+6%.

On to `O=[N+]([O-])c1ccc2c3c(cccc13)CC2` [Compound 5-Nitroacenaphthene], for which, in data set [1], the “MMP assays efficacy (%) qHTS-HepG2” value is recorded as -82±23%. Besides, the IC50 was 34.4 ± 20.4 µM in data set [1] (setting [6]), 24 ± 16.2 µM in data set [2] and 56.2 µM in data set [3]. Besides, the Emax in data set [3] stood at 50%. Further, the “MMP assays efficacy (%) Rat Hepatocytes” value in data set [4] is given as -78±25%.

`COP(=S)(OC)Oc1c(Cl)cc(C)cc1Cl` [Tolclofos-methyl]: the “MMP assays efficacy (%) qHTS-HepG2” value in data set [1] is -72±22%. Moreover, the results for the half-maximal inhibitory concentration (IC50) in data set [1] (setting [5]), in data set [2] and in data set [3] were 30.6 ± 5.8 µM, 31.2 ± 19 µM and 39.8 µM, respectively. The Emax in data set [3] came to 105%. Further, the “MMP assays efficacy (%) Rat Hepatocytes” value in data set [4] is -74±66%.

As for `O=C1c2ccccc2C(=O)c2cc(O)ccc21` [Compound 2-Hydroxyanthraquinone], the “MMP assays efficacy (%) qHTS-HepG2” value in data set [1] was -124±4%. Further, the 50% inhibitory concentration (IC50) in data set [1] (setting [6]) was 3.31 ± 1.38 µM; in data set [2], 17.3 ± 6.83 µM; in data set [3] it was 7.08 µM. In addition, the Emax in data set [3] worked out at 120%. Further, in data set [4], the “MMP assays efficacy (%) Rat Hepatocytes” value is -68±21%.

Take `CC(C)C(C(=O)OC(C#N)c1cccc(Oc2ccccc2)c1)c1ccc(Cl)cc1` (stereo not drawn) [Fenvalerate]: the “MMP assays efficacy (%) qHTS-HepG2” value in data set [1] is -69±10%. Further, in data set [1] (setting [5]), the 50% inhibitory concentration (IC50) was 32.1 µM. Also, the “MMP assays IC50 (µM) Rat Hepatocytes” value in data set [2] was “inactive”. In data set [3], the half-inhibitory concentration (IC50) was 35.5 µM and the Emax was 60%. For the same molecule, the “MMP assays efficacy (%) Rat Hepatocytes” value in data set [4] is “inactive”.

As to `Cc1cc2nc3c(=O)[nH]c(=O)nc-3n(C[C@H](O)[C@H](O)[C@H](O)CO)c2cc1C` [Riboflavin], the “MMP assays efficacy (%) qHTS-HepG2” value in data set [1] is -113±7%. Besides, the IC50 was 7.02 ± 1.78 µM in data set [1] (setting [5]), 31.3 ± 8.72 µM in data set [2] and 11.2 µM in data set [3]. Further, the Emax in data set [3] stood at 86%. The “MMP assays efficacy (%) Rat Hepatocytes” value in data set [4] is recorded as -97±58%.

As for `Oc1ccc(Cl)cc1Sc1cc(Cl)ccc1O` [Fenticlor], the “MMP assays efficacy (%) qHTS-HepG2” value in data set [1] is reported as -107±14%. The values for the concentration for half-maximal inhibition (IC50) in data set [1] (setting [5]), in data set [2] and in data set [3] were 2.15 ± 0.36 µM, 13.9 ± 8.84 µM and 5.48 µM, respectively. For the same molecule, in data set [3], the Emax stood at 101%. In addition, the “MMP assays efficacy (%) Rat Hepatocytes” value in data set [4] was -88±15%.

Regarding `O=C1C2(Cl)C3(Cl)C4(Cl)C(Cl)(Cl)C5(Cl)C3(Cl)C1(Cl)C5(Cl)C24Cl` (stereo not drawn) [Kepone], the “MMP assays efficacy (%) qHTS-HepG2” value in data set [1] is given as -101±8%. Further, the IC50 in data set [1] (setting [5]) is 0.93 ± 0.65 µM; in data set [2], 10.2 ± 9.25 µM; in data set [3], 2.82 µM. In data set [3], the Emax worked out at 99%. Besides, the “MMP assays efficacy (%) Rat Hepatocytes” value in data set [4] is recorded as -107±26%.

For `O=P(Oc1ccccc1)(Oc1ccccc1)Oc1ccccc1` [Triphenyl phosphate], in data set [1], the “MMP assays efficacy (%) qHTS-HepG2” value is given as -98±14%. The IC50 in data set [1] (setting [5]) was 1.38 ± 1.48 µM; in data set [2] it was 28.9 ± 9.26 µM; in data set [3], 1.26 µM. For the same molecule, the Emax in data set [3] was 48%. The “MMP assays efficacy (%) Rat Hepatocytes” value in data set [4] is on record as -56±38%.

Regarding `CCOC(=O)C1(c2ccccc2)CCN(CCC(C#N)(c2ccccc2)c2ccccc2)CC1` [Diphenoxylate hydrochloride], the “MMP assays efficacy (%) qHTS-HepG2” value in data set [1] is -56±8%. For the same molecule, the IC50 was 20.7 ± 1.19 µM in data set [1] (setting [6]), 19.4 µM in data set [2] and 17.3 µM in data set [3]. In addition, in data set [3], the Emax was determined as 71%. For the same molecule, in data set [4], the “MMP assays efficacy (%) Rat Hepatocytes” value is listed as -81±36%.

Take `CCC[C@@]1(CCc2ccccc2)CC(O)=C([C@H](CC)c2cccc(NS(=O)(=O)c3ccc(C(F)(F)F)cn3)c2)C(=O)O1` [Tipranavir]: in data set [1], the “MMP assays efficacy (%) qHTS-HepG2” value is reported as -93±5%. Moreover, the figures for the IC50 in data set [1] (setting [5]), in data set [2] and in data set [3] were 26.6 ± 4.94 µM, 29.2 ± 2.37 µM and 17.3 µM, respectively. Moreover, the Emax in data set [3] amounted to 100%. Also, the “MMP assays efficacy (%) Rat Hepatocytes” value in data set [4] is -96±11%.

As for `CCCCOC(=O)c1ccc(O)cc1` [Butylparaben], the “MMP assays efficacy (%) qHTS-HepG2” value in data set [1] is -109±15%. Besides, the IC50 in data set [1] (setting [6]) is 19 µM; in data set [3], 35.5 µM. In addition, the “MMP assays IC50 (µM) Rat Hepatocytes” value in data set [2] was “inactive”. Also, the Emax in data set [3] came out at 124%. Further, the “MMP assays efficacy (%) Rat Hepatocytes” value in data set [4] was “inactive”.

Take `C#C[C@]1(O)CC[C@H]2[C@@H]3CCc4cc(O)ccc4[C@H]3CC[C@@]21C` [Compound 17alpha-Ethinylestradiol]: the “MMP assays efficacy (%) qHTS-HepG2” value in data set [1] was -95±9%. Further, the IC50 is 19.1 ± 5.99 µM in data set [1] (setting [6]), 18.4 ± 1.5 µM in data set [2] and 15.5 µM in data set [3]. Besides, the Emax in data set [3] is 107%. Besides, the “MMP assays efficacy (%) Rat Hepatocytes” value in data set [4] was -42±1%.

On to `CO/N=C(/C1=NOCCO1)c1ccccc1Oc1ncnc(Oc2ccccc2Cl)c1F` [Fluoxastrobin], for which, in data set [1], the “MMP assays efficacy (%) qHTS-HepG2” value is listed as -81±29%. For the same molecule, the IC50 in data set [1] (setting [5]) is 45.8 ± 15 µM; in data set [2] it was 37.9 ± 19.3 µM; in data set [3] it was 11.2 µM. For the same molecule, the Emax in data set [3] was 72%. Also, in data set [4], the “MMP assays efficacy (%) Rat Hepatocytes” value is reported as -105±24%.

In the case of `CN1C(C(=O)Nc2ccccn2)=C(O)c2sccc2S1(=O)=O` [Tenoxicam], in data set [1], the “MMP assays efficacy (%) qHTS-HepG2” value is reported as -83±17%. Moreover, the IC50 was 8.36 ± 1.07 µM in data set [1] (setting [5]), 4.23 ± 3.79 µM in data set [2] and 6.6 µM in data set [3]. Moreover, the Emax in data set [3] worked out at 69%. Moreover, the “MMP assays efficacy (%) Rat Hepatocytes” value in data set [4] is on record as -65±17%.

On to `O=C(CC(=O)c1ccccc1)c1ccccc1` [1,3-Diphenyl-1,3-propanedione], for which the “MMP assays efficacy (%) qHTS-HepG2” value in data set [1] is -75±15%. In addition, the concentration for half-maximal inhibition (IC50) in data set [1] (setting [6]) was 11.7 ± 1.35 µM; in data set [2] it was 39.8 ± 14.2 µM; in data set [3], 35.5 µM. Further, the Emax in data set [3] is 121%. The “MMP assays efficacy (%) Rat Hepatocytes” value in data set [4] is reported as -84±43%.

As to `Cc1c(Cl)cccc1Nc1ccccc1C(=O)O` [Tolfenamic acid], in data set [1], the “MMP assays efficacy (%) qHTS-HepG2” value is -115±7%. For the same molecule, the IC50 was 11.9 µM in data set [1] (setting [5]), 14.8 ± 4.38 µM in data set [2] and 17.3 µM in data set [3]. In data set [3], the Emax was 98%. In addition, in data set [4], the “MMP assays efficacy (%) Rat Hepatocytes” value was -105±5%.

With `CC1CCCCC1NC(=O)Nc1ccccc1` (stereo not drawn) [Siduron], the “MMP assays efficacy (%) qHTS-HepG2” value in data set [1] is on record as -73±13%. Moreover, the figures for the IC50 in data set [1] (setting [5]), in data set [2] and in data set [3] were 41.6 ± 21.1 µM, 43.9 ± 17.4 µM and 35.5 µM, respectively. Further, the Emax in data set [3] was determined as 89%. For the same molecule, in data set [4], the “MMP assays efficacy (%) Rat Hepatocytes” value is given as -48±7%.

On to `CCC(=O)c1c(O)cc(O)cc1O` [Flopropione], for which the “MMP assays efficacy (%) qHTS-HepG2” value in data set [1] is reported as -111±23%. For the same molecule, the 50% inhibitory concentration (IC50) in data set [1] (setting [5]) was 18.8 ± 6.83 µM. In addition, the “MMP assays IC50 (µM) Rat Hepatocytes” value in data set [2] is “inactive”. Also, in data set [3], the IC50 amounted to 17.3 µM and the Emax amounted to 103%. The “MMP assays efficacy (%) Rat Hepatocytes” value in data set [4] is “inactive”.
